Assay results reported in patent US8334235B2, “Thiadiazolyloxyphenylamidines and use thereof as fungicides” (Bayer Cropscience AG, priority 2008, dated 2012).

Key:
Sphaerotheca fuliginea = test: Sphaerotheca test (cucumber)/protective; type: in vivo; settings: Podosphaera fuliginea, 168 h, 500 ppm active substance, protective, evaluation 7 days after inoculation, read-out: degree of effectiveness
Experimental: • Solvent: 49 parts by weight of N,N-dimethylformamide • Emulsifier: 1 part by weight of alkylaryl polyglycol ether (polyoxyethylene (16) tristearylphenyl ether) To prepare a suitable active substance composition, 1 part by weight of active substance is mixed with the given amounts of solvents and emulsifier and the concentrate is diluted to the desired concentration using water. For the testing of protective effectiveness, young cucumber plants are sprayed with the active substance composition in the application rate given. One day after treatment, the plants are inoculated with a suspension of spores of Sphaerotheca fuliginea. The plants are then placed in a greenhouse at 70% relative humidity and a temperature of 23° C. Evaluation is carried out 7 days after the inoculation. In this connection, 0% means a degree of effectiveness corresponding to that of the control, while a degree of effectiveness of 100% means that no infestation is observed.

Puccinia triticina [1] = test: Puccinia triticina test (wheat)/protective; type: in vivo; settings: 192 h, 500 ppm active substance, protective, evaluation 8 days after inoculation, read-out: degree of effectiveness
Experimental: (§1) • Solvent: 50 parts by weight of N,N-dimethylacetamide • Emulsifier: 1 part by weight of alkylaryl polyglycol ether (polyoxyethylene (16) tristearylphenyl ether)
(§2) To prepare a suitable active substance composition, 1 part by weight of active substance is mixed with the given amounts of solvent and emulsifier and the concentrate is diluted to the desired concentration using water.
For the testing of protective effectiveness, young plants are sprayed with the active substance composition in the application rate given. After the spray coating has been dried on, the plants are sprayed with a suspension of spores of Puccinia triticina. The plants remain in an incubation chamber at 20° C. and 100% relative humidity for 48 hours. The plants are placed in a greenhouse at a temperature of approximately 20° C. and a relative humidity of approximately 80%.
(§3) Evaluation is carried out 8 days after the inoculation. In this connection, 0% means a degree of effectiveness corresponding to that of the control, while a degree of effectiveness of 100% means that no infestation is observed.

Puccinia triticina [2] = test: Puccinia triticina test (wheat)/curative; type: in vivo; settings: 192 h, 500 ppm active substance, curative, evaluation 8 days after inoculation, read-out: degree of effectiveness
Experimental: as §1, §2
For the testing of curative effectiveness, young plants are sprayed with a suspension of spores of Puccinia triticina. The plants remain in an incubation chamber at 20° C. and 100% relative humidity for 48 hours and are then sprayed with the active substance composition in the application rate given. The plants are placed in a greenhouse at a temperature of approximately 20° C. and a relative humidity of approximately 80%.
as §3

log P (pH 2.3) = type: physicochemical

logP (log P (pH 2.3)): 1.62
SMILES: CCN(C)C=Nc1cc(C)c(Oc2nc(C3(Cl)CC3)ns2)cc1Cl [Compound 3, N′-(2-chloro-4-{[3-(1-chlorocyclopropyl)-1,2,4-thiadiazol-5-yl]oxy}-5-methylphenyl)-N-ethyl-N-methylimidoformamide]
pest or weed control at 500 ppm (Sphaerotheca fuliginea): ≥ 70% | pest or weed control at 500 ppm (Puccinia triticina [1]): ≥ 70% | pest or weed control at 500 ppm (Puccinia triticina [2]): ≥ 70%
